Tested on: KB
Assay: Cytotoxicity against human KB cells
Format: functional, cell-based

`C#CCCC[C@@H]1NC(=O)[C@H](C(C)C)NC(=O)[C@@H](Cc2ccccc2)N(C)C(=O)[C@@H](C(C)C)N(C)C(=O)[C@H](C(C)C)NC(=O)[C@H](C(C)C)N(C)C(=O)[C@H](C)OC(=O)[C@H]1C` [ULONGAPEPTIN] showed an IC50 of 630 nM.

Source: ChEMBL document CHEMBL1159389, “Ulongapeptin, a cytotoxic cyclic depsipeptide from a Palauan marine cyanobacterium Lyngbya sp” (J Nat Prod, 2003)
